Tests used:
postmenopausal women [1] = test: Randomized, double blind, placebo controlled study of oral lasofoxifene on sleep (Sleep Problems subscale of Women's Health Questionnaire); assay type: in vivo, human; details: 3 months assessment
Protocol: The Effects of Oral Administration of (−)-cis-6-phenyl-5-[4-(2-pyrrolidin-1-yl-ethoxy)-phenyl]-5,6,7,8-tetrahydro-naphthalene-2-ol, D-tartrate salt (lasofoxifene) on Sleep: A Randomized, Double Blind, Placebo Controlled Study
(§1) Subjects: A double blind, randomized, placebo controlled trial of approximately three hundred and seventy five women between the ages of 50 and 74 years of age inclusive, and 1-20 years postmenopausal was carried out. The subjects selected for the study were ambulatory females between the ages of 50 and 74 years of age (inclusive) who gave written informed consent for participation in the study. […] The subject's Screening/Baseline mean L1-L4 lumbar bone mineral density (BMD) of the spine must be less than +2.0 standard deviations and greater than −2.5 standard deviations of age-and sex-matched bone mineral density (Z-score) as determined by standards of the manufacturer of the Dual X-ray Absorptiometer (DXA) used in the determination of that BMD. […] The subjects' endometrial thickness were typically <5 mm as determined by transvaginal ultrasound (TVU) and subjects outside of this criteria were asked to undergo additional baseline evaluation following initial randomization. […]
Assessment Method: Patient self-report recorded on Sleep Problems subscale of standardized questionnaire, Women's Health Questionnaire (WHQ; Hunter, M. 1992. Psychology and Health, 7: 45-54).

postmenopausal women [2] = test: Randomized, double blind, placebo controlled study of oral lasofoxifene on joint pain (visual analog scale pain score); assay type: in vivo, human; details: 3 months assessment, self-reported VAS 100 mm scale (0 mm=no pain, 100 mm=worst pain)
Protocol: as §1, with “The Effects of Oral Administration of (−)-cis-6-phenyl-5-[4-(2-pyrrolidin-1-yl-ethoxy)-phenyl]-5,6,7,8-tetrahydro-naphthalene-2-ol, D-tartrate salt (Iasofoxifene) on Joint Pain: A Randomized, Double Blind, Placebo Controlled Study Subjects:” for “Subjects:”

O=C(O)C(O)C(O)C(=O)O.Oc1ccc2c(c1)CC[C@H](c1ccccc1)[C@@H]2c1ccc(OCCN2CCCC2)cc1 [Lasofoxifene, (−)-cis-6-phenyl-5-[4-(2-pyrrolidin-1-yl-ethoxy)-phenyl]-5,6,7,8-tetrahydro-naphthalene-2-ol, D-tartrate salt]
Improvement in sleep (less sleep disturbance) vs. placebo, in words (postmenopausal women [1]; lasofoxifene 0.4 mg treatment group vs. placebo): statistically significant improvement in sleep
Mean Change from Baseline (WHQ Sleep Problems subscale) (postmenopausal women [1]; lasofoxifene 0.4 mg/day oral, patient self-report): −0.09
Joint Pain Changes Resulting From Treatment (Mean Change from Baseline) (postmenopausal women [2]; lasofoxifene 0.25 mg/day oral): −8.16
Joint Pain Changes Resulting From Treatment (Mean Change from Baseline) (postmenopausal women [2]; lasofoxifene 1.0 mg/day oral): 4.52

— patent publication US20040152713A1, “Methods for treating joint pain or improving sleep using an estrogen agonist/antagonist” (Pfizer Inc., priority 2003, published 2004)
